Source: US8415469B2, “Compounds and methods for kinase modulation, and indications therefor” (Plexxikon Inc., priority 2005, dated 2013)

Tests used:
Format in all cases: biochemical
[1] = target: T1, FGFR1 (Homo sapiens, UniProt P11362, C488A/C584S); experiment: AlphaScreen kinase assay, FGFR1; settings: read-out: IC50, activity toward kinase FGFR
T1 construct: P1351.pET N6 BI-PTP FGFR A458-E765-X C488A, C584S; made in house; host or cells: E. coli (PTP1B co-expressed)

[2] = target: T2, Ret (Homo sapiens, UniProt P07949); experiment: AlphaScreen kinase assay, Ret; settings: read-out: IC50, activity toward kinase Ret
T2 construct: P1378.pET-SF BI-PTP RET H661-R1012 HIS; made in house
T2 sequence (P07949 with tags, fused parts or gaps): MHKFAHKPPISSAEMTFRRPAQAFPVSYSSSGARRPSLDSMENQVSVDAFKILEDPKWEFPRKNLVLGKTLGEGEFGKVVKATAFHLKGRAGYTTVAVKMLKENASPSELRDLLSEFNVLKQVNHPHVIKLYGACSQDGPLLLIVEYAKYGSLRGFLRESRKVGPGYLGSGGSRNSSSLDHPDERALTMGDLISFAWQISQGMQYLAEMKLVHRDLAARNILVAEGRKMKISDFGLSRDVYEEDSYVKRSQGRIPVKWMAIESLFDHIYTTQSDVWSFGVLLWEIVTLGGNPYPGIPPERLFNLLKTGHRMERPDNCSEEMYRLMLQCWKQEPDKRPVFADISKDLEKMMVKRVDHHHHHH

[3] = target: T3, Btk (Homo sapiens, UniProt Q06187); experiment: Z'-Lyte FRET kinase assay (Invitrogen), Btk; settings: read-out: IC50, activity toward kinase Btk
T3 construct: purchased Invitrogen (assay run by Invitrogen)
T3 sequence (Q06187 whole entry): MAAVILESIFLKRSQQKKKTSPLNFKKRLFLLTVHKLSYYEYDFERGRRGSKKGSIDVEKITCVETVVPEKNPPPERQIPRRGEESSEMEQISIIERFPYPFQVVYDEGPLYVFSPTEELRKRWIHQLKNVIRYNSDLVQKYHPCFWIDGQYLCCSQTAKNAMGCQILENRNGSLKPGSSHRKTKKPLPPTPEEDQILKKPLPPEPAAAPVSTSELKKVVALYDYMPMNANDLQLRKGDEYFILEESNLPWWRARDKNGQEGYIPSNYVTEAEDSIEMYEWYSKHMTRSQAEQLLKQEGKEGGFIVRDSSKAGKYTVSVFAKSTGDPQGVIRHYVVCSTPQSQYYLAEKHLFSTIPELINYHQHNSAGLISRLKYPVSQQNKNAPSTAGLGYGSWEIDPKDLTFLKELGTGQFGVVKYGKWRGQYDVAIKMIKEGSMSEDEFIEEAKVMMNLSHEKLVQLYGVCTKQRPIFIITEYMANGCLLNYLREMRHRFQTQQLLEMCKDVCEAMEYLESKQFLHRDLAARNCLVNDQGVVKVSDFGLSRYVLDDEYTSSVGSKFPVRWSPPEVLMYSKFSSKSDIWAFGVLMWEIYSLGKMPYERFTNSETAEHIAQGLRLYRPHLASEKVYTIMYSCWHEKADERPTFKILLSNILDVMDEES

[4] = target: T4, Kdr (Homo sapiens, UniProt P35968); experiment: Z'-Lyte FRET kinase assay (Invitrogen), Kdr; settings: read-out: IC50, activity toward kinase Kdr
T4 construct: purchased Invitrogen (assay run by Invitrogen)
T4 sequence (P35968 20-1356): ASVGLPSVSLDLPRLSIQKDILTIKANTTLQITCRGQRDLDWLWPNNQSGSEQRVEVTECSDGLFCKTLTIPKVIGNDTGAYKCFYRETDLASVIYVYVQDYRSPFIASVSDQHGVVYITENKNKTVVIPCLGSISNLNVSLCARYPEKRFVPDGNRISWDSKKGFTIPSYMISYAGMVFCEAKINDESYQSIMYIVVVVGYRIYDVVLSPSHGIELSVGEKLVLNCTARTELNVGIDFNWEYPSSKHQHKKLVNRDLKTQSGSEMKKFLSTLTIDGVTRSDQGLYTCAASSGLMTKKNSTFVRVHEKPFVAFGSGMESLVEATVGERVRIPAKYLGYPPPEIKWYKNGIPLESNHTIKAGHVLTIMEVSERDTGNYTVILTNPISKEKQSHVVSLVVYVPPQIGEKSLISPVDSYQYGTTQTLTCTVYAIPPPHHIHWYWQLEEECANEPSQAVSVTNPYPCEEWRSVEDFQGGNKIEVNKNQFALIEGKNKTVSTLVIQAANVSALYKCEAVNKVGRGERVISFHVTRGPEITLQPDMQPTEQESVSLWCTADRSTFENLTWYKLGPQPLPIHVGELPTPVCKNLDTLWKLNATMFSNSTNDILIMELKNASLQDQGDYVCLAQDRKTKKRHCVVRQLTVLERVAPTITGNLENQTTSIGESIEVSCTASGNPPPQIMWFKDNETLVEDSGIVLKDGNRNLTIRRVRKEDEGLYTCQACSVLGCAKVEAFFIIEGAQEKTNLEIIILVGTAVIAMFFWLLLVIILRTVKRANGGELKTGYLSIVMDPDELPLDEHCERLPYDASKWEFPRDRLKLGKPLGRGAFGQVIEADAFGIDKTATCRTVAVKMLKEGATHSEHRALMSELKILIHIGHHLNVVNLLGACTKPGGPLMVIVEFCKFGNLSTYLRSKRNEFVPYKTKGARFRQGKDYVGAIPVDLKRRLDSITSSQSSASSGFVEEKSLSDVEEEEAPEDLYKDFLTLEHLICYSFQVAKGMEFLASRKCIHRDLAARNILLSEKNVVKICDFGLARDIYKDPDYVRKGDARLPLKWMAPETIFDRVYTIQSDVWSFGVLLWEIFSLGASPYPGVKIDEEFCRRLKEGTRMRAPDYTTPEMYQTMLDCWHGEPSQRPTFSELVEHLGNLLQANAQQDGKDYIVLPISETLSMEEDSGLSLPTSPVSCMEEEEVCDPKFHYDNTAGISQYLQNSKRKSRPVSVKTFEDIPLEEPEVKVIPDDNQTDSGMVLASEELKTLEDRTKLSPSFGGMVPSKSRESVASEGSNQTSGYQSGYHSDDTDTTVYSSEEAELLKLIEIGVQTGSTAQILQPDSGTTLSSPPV
Excerpt: For example, direct radiometric, indirect FRET or AlphaScreen assays may be used to assess the level of phosphorylation of a substrate in the presence of test compounds in order to determine the inhibitory affect of the compound on the kinase. […] For these assays, compounds of the invention were screened by Invitrogen using Z′-Lyte™ kinase assay.
Briefly, the Invitrogen kinase assay involves use of a specific peptide substrate optimized for each kinase, containing a fluorophore at each end that make up the FRET pair. The peptide sensitivity to proteolytic cleavage depends on phosphorylation of the peptide. Non-phosphorylated peptide is cleaved by a protease while peptide phosphorylated by the kinase is not cleaved. Cleavage of the peptide disrupts the FRET between the donor (coumarin) and acceptor (fluorescein) fluorophores, resulting in an increase in the ratio of donor emission to acceptor emission. The emission ratio of coumarin to fluorescein is used to assess the reaction progress. […] Thus, the assay involves a kinase reaction in the presence of varying concentrations of a given compound, a development reaction with site specific protease, and detection of the fluorescent emission ratio of coumarin and fluorscein. […] Reaction conditions for each kinase are determined to provide optimal reaction times, incubation temperature, kinase and ATP concentrations. Test samples are made up in 1× kinase buffer (50 mM HEPES pH 7.5, 50 mM MgCl2, 5 mM EGTA, 0.05% BRIJ-35) and compound at desired concentration prepared in DMSO such that the final DMSO is 1%. […] All kinase except for MAP2K1 were at 10 μM ATP in the kinase reaction, while MAP2K1 was at 100 μM. Samples are mixed and the kinase reaction is incubated 1 hour at room temperature, after which 5 μl of development solution is added and mixed. After incubation for another 1 hour at room temperature, 5 μl of stop reagent is added to each sample and mixed. The fluorescence signals are measured to determine the emission ratio.

[5] = target: T5, Fms (Homo sapiens, UniProt P07333); experiment: AlphaScreen kinase assay, Fms; settings: read-out: IC50, activity toward kinase Fms
T5 construct: purchased Upstate Biotechnology
T5 sequence (P07333 20-972): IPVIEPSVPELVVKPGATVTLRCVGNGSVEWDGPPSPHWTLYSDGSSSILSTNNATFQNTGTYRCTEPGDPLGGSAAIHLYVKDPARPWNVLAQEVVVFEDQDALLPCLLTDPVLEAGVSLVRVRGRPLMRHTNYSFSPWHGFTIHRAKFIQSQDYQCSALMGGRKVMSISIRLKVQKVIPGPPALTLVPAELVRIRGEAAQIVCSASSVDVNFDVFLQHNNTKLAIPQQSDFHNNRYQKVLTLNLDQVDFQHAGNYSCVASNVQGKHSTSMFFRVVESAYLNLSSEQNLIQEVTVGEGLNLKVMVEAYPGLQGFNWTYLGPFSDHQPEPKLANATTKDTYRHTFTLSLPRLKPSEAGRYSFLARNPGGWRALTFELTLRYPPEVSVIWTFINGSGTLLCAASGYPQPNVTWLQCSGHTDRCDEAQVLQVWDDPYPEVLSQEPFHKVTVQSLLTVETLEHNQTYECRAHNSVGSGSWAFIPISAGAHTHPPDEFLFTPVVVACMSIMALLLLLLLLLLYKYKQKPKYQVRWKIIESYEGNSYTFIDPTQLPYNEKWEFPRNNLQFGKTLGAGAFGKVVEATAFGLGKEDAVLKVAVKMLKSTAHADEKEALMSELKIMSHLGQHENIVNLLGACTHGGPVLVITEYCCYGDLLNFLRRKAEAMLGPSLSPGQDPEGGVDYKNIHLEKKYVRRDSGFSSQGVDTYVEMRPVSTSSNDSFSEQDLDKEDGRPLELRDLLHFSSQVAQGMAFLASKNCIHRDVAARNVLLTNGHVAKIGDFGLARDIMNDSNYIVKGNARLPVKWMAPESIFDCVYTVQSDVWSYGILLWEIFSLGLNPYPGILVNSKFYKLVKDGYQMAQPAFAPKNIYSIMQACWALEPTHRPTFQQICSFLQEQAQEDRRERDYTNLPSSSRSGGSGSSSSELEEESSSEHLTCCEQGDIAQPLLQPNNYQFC

Measured: IC50

T1 sequence (P11362 458-765 C488A/C584S): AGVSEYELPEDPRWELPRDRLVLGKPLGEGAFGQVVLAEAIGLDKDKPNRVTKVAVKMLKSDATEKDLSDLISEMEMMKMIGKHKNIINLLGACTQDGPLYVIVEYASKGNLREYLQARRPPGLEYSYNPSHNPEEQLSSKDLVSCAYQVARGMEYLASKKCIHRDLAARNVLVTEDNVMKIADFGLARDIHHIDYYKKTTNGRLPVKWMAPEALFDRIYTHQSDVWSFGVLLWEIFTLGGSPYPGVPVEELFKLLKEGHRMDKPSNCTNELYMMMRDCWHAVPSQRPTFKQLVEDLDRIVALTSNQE

O=C(c1cccc(O)c1)c1c[nH]c2ncccc12 [Compound P-0011]
not listed: [5]
≤ 10 µM: all other assays above

O=C(c1cccc(O)c1)c1c[nH]c2nccc(Cl)c12 [Compound P-0012]
≤ 10 µM: all assays above

NC(=O)c1ccc(-c2ccnc3[nH]cc(C(=O)c4cc(F)ccc4F)c23)cc1 [Compound P-0013]
not listed: [5]
≤ 10 µM: all other assays above

NC(=O)c1ccc(-c2ccnc3[nH]cc(C(=O)c4ccccc4F)c23)cc1 [Compound P-0014]
≤ 10 µM: [2] | [3] | [4]

COc1ccc(C(=O)c2c[nH]c3ncc(-c4cccc(/C=C/C(=O)O)c4)cc23)c(Cl)c1 [Compound P-0015]
not listed: [5]
≤ 10 µM: all other assays above

Cc1ccccc1C(=O)c1c[nH]c2nccc(-c3ccc(C(N)=O)cc3)c12 [Compound P-0017]
not listed: [5]
≤ 10 µM: all other assays above

Nc1cccc(-c2ccnc3[nH]cc(C(=O)c4ccccc4F)c23)c1 [Compound P-0022]
≤ 10 µM: [2] | [3] | [4]

Cc1ccc(F)cc1C(=O)c1c[nH]c2ncc(-c3cccc(NS(C)(=O)=O)c3)cc12 [Compound P-0028]
not listed: [5]
≤ 10 µM: all other assays above

Nc1ccnc2[nH]cc(C(=O)c3ccccc3)c12 [Compound P-0029]
not listed: [5]
≤ 10 µM: all other assays above

Cc1ccc(F)cc1C(=O)c1c[nH]c2ncc(-c3cccc(N)c3)cc12 [Compound P-0040]
not listed: [5]
≤ 10 µM: all other assays above

Cc1ccccc1C(=O)c1c[nH]c2nccc(-c3cccc(N)c3)c12 [Compound P-0044]
≤ 10 µM: [2] | [3] | [4]

Nc1cccc(-c2ccnc3[nH]cc(C(=O)c4cc(F)ccc4F)c23)c1 [Compound P-0046]
≤ 10 µM: [2] | [3] | [4]

O=C(c1cccc(O)c1)c1c[nH]c2ncc(-c3cccnc3)cc12 [Compound P-0048]
not listed: [1]
≤ 10 µM: all other assays above

NC(=O)c1cccc(-c2ccnc3[nH]cc(C(=O)c4cc(F)ccc4F)c23)c1 [Compound P-0049]
≤ 10 µM: [2] | [3] | [4]

O=C(c1ccccc1F)c1c[nH]c2nccc(-c3ccsc3)c12 [Compound P-0051]
≤ 10 µM: [2] | [3] | [4]

O=C(c1cc(F)ccc1F)c1c[nH]c2nccc(-c3cccnc3)c12 [Compound P-0063]
≤ 10 µM: [2] | [3] | [4]

CC(=O)Nc1cccc(-c2ccnc3[nH]cc(C(=O)c4ccccc4F)c23)c1 [Compound P-0070]
≤ 10 µM: [2] | [3] | [4]
